As a reminder, the Inhibition is the relative decrease from the control value, in per cent. Low readings indicate a weak effect, high ones a strong effect. The term pIC50 denotes the IC50 on a negative log10 scale, so that one unit is a factor of ten. In general, inhibition refers to the percentage by which the read-out fell short of the control.

The source of these data is patent publication US12281080B2, “Quinoline-based compounds and methods of inhibiting CDK8/19” (University of South Carolina, priority 2018, dated 2025).

pIC50: −log10 of the molar value. Read-outs that look alike come from different tables or passages of the source.

One experiment concerns CXCL1. Briefly: QPCR gene expression in TNFα-treated HEK293 cells. It counts as cell-based, human. Particulars: 1 μM, TNFα-treated HEK293 cells, QPCR; for inhibition at 1 µM: Homo sapiens, read-out: Inhibition at 1 μM (% Ctrl) CXCL1. An excerpt: (§1) Two types of cell-based assays for CDK8/19 inhibition were used to test the efficacy of quinoline quinolone compounds described herein (FIG. 3A). The first cell-based assay, which measures the effects of CDK8/19 inhibitors on RNA levels of CDK8/19-regulated genes by quantitative reverse transcription-PCR (QPCR), is based on the ability of CDK8/19 inhibitors to suppress the induction of NFκB-inducible genes by TNFα and to inhibit basal expression of MYC in human embryonic kidney (HEK) 293 cells, as previously described. In this assay, 293 cells growing in DMEM (High-glucose) media supplemented with 10% FBS are pre-treated with the tested inhibitors or DMSO control for 1 hour and then treated with 10 ng/mL TNFα (an activator of NFκB) for 2 hours (in the presence or absence of the tested inhibitors), followed by RNA extraction and QPCR analysis of RNA expression of specific genes conducted as described (Chen et al., ibid), using housekeeping genes RPL13A and GAPDH as normalization standards. […] All the quinoline derivatives inhibited the expression of all three genes.

The next experiment relates to IL8. Kind of experiment: QPCR gene expression in TNFα-treated HEK293 cells. It counts as cell-based, human. Particulars: 1 μM, TNFα-treated HEK293 cells, QPCR; for inhibition at 1 µM: Homo sapiens, read-out: Inhibition at 1 μM (% Ctrl) IL8.
Text: as §1

A further experiment has as its system MYC. Kind of experiment: QPCR gene expression in TNFα-treated HEK293 cells. It counts as cell-based, human. The following applies: 1 μM, TNFα-treated HEK293 cells, QPCR; for inhibition at 1 µM: Homo sapiens, read-out: Inhibition at 1 μM (% Ctrl) MYC.
Text: as §1

Experiment [1] concerns CDK8/19-mediated NFκB-driven transcription. Briefly: NFκB-dependent luciferase reporter assay in parental 293 reporter cells. It counts as cell-based, human. Particulars: for Inhibition of NFκB reporter activity / inhibition at 1 µM: 1 uM.
The test system of the next experiment is HL60-Luc cells. Briefly: HL60-Luc proliferation assay (BLI). It counts as cell-based. Particulars: HL-60-Luc, 168 h; 7 days. The procedure: The anti-leukemic activity was also evaluated with a HL60 assay. The HL60 assay was performed by a similar procedure as MV4-11 assay. A derivative of the HL-60 leukemia cell line was generated to express Luciferase and ZsGreen by lentiviral infection with pHIV-Luc-ZsGreen, to enable leukemia growth analysis by bioluminescence imaging (BLI). The initial Luciferase-ZsGreen transduced cell population was sorted for ZsGreen positivity with fluorescence activated cell sorting and individual clones were tested for luciferase expression. […] The HL-60 assay was performed in 96-well plates by treating the HL60-Luc cells with testing compounds at different concentrations for 7 days, followed by BLI to quantify the effects of test articles on cell proliferation.

The next experiment concerns MV4-11 cells. Briefly: MV4-11-Luc proliferation assay (BLI). It counts as cell-based. The following applies: Homo sapiens, MV4-11, 168 h; 7 days. The procedure: The anti-leukemic activity was evaluated with a MV4-11 assay. The population of MV4-11 cells, which depend on CDK8/19 for their proliferation, was made to express Luciferase and ZsGreen by lenvtiral infection with pHIV-Luc-ZsGreen, to enable leukemia growth analysis by bioluminescence imaging (BLI). The initial Luciferase-ZsGreen transduced cell population was sorted for ZsGreen positivity with fluorescence activated cell sorting. The MV4-11 assay was performed in 96-well plates by treating the MV4-11-Luc cells with testing compounds at different concentrations for 7 days, followed by BLI to quantify the effects of test articles on cell proliferation.

In experiment [2] the target is CDK8 in complex with Cyclin C (Homo sapiens (Human), UniProt P49336). Kind of experiment: LanthaScreen Eu Kinase Binding Assay. An excerpt:
The binding of the tracer to the kinase is detected using a europium-labeled anti-tag antibody, which binds to the kinase of interest. […] The binding of an inhibitor to the kinase competes for binding with the tracer, resulting in a loss of FRET.

Setting [3] is: Homo sapiens, 293/NFkB-luc, read-out: IC50 (293-NFKB-Luc).

Sequence of CDK8 in complex with Cyclin C (P49336 whole entry): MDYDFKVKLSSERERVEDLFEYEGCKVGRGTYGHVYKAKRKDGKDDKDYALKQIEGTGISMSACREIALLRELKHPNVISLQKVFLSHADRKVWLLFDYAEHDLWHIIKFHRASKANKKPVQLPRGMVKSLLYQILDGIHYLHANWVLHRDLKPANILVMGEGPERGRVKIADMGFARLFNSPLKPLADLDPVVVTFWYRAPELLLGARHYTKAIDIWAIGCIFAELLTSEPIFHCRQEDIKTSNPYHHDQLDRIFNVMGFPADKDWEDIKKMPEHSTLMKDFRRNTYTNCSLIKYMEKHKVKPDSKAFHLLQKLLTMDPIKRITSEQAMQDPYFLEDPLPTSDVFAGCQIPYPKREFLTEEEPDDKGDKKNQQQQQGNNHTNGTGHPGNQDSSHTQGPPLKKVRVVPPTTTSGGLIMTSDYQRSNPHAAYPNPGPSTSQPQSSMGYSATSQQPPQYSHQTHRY
Sequence of CDK8 in complex with Cyclin C (P24863 whole entry partner): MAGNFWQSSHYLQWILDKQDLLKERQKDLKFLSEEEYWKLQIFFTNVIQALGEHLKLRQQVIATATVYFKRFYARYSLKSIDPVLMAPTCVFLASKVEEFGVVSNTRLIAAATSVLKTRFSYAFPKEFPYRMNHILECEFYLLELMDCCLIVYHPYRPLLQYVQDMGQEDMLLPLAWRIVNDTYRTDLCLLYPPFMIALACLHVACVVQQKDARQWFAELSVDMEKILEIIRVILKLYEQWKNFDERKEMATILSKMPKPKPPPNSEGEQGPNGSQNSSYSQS

In the case of `N#Cc1ccc2ncnc(NCCc3ccccc3)c2c1` [Senexin A, reference compound], in the experiment on CXCL1, the “Inhibition at 1 μM (% Ctrl) CXCL1” value is given as 34.19%. Besides, in the experiment with IL8, the “Inhibition at 1 μM (% Ctrl) IL8” value is listed as 29.53%. In the experiment with MYC, the “Inhibition at 1 μM (% Ctrl) MYC” value is 24.94%. Also, in experiment [1] (parental 293-derived reporter cell line, read-out: HEK293 NFKB CDK8 Reporter IC50), the pIC50 was 6.45.
With `CCCNc1ccnc2ccc(C#N)cc12` [compound 6134, 4-(propylamino)quinoline-6-carbonitrile], the inhibition at 1 µM in the experiment on CXCL1 was found to be 72.2%; in the experiment with IL8, 62.1%; in the experiment with MYC, 57.2%.
Taken in the same sequence, the figures for `CC(C)Nc1ccnc2ccc(C#N)cc12` [compound 6136, 4-(isopropylamino)quinoline-6-carbonitrile] were 80.3%, 74.1% and 65.6%.
Consider `Clc1ccc2nccc(NCCc3ccccc3)c2c1` [compound 6145, 6-chloro-N-phenethylquinolin-4-amine], for which the “Inhibition of NFκB reporter activity” value in experiment [1] was “N.A. (8% inh. at 1 uM)”. For the same compound, in experiment [1] (Homo sapiens), the inhibition at 1 µM was below 15%.
The matching figures for `Brc1ccc2nccc(NCCc3ccccc3)c2c1` [compound 6146, 6-bromo-N-phenethylquinolin-4-amine]: “N.A. (10% inh. at 1 uM)” and below 15%.
On to `Ic1ccc2nccc(NCCc3ccccc3)c2c1` [compound 6147, 6-iodo-N-phenethylquinolin-4-amine], for which the inhibition at 1 µM in experiment [1] (Homo sapiens) is below 15%.
In the case of `FC(F)(F)c1ccc2nccc(NCCc3ccccc3)c2c1` [compound 6150, N-phenethyl-6-(trifluoromethyl)quinolin-4-amine], the “Inhibition of NFκB reporter activity” value in experiment [1] is given as “N.A. (10% inh. at 1 uM)”. Further, the inhibition at 1 µM in experiment [1] (Homo sapiens) is below 15%.
For `Nc1ccc2nccc(NCCc3ccccc3)c2c1` [compound 6164, N4-phenethylquinoline-4,6-diamine], the inhibition at 5 µM in experiment [1] (Homo sapiens, 5 uM) was determined as 5%.
In the experiment on HL60-Luc cells, `N#Cc1ccc2nccc(NCCc3ccc4cc(C(=O)N5CCN(CCCO)CC5)ccc4c3)c2c1` [compound 6216, 4-((2-(6-(4-(3-hydroxypropyl)piperazine-1-carbonyl)naphthalen-2-yl)ethyl)amino)quinoline-6-carbonitrile] gave a pIC50 of 6.79.
Same read-out and setting: under `CN(C)C(=O)c1ccc2cc(CCNc3ccnc4ccc(C#N)cc34)ccc2c1` [compound 6219, 6-(2-((6-cyanoquinolin-4-yl)amino)ethyl)-N,N-dimethyl-2-naphthamide] stands 7.11.
On the same count and under the same terms, under `N#Cc1ccc2nccc(NCCc3ccc4cc(C(=O)N5CCNCC5)ccc4c3)c2c1` [compound 6283, 4-((2-(6-(piperazine-1-carbonyl)naphthalen-2-yl)ethyl)amino)quinoline-6-carbonitrile] stands 6.12.
For the compound `N#Cc1ccc2nccc(NCCc3ccc4cc(C(=O)N5CCSCC5)ccc4c3)c2c1` [compound 6294, 4-[2-[6-(thiomorpholine-4-carbonyl)-2-naphthyl]ethylamino]quinoline-6-carbonitrile], the pIC50 in experiment [1] (setting [3]) was 6.97; in the experiment on MV4-11 cells it was 7.04; with HL60-Luc cells, 7.13; in experiment [2], 8.01.
For the compound `N#Cc1ccc2nccc(NCCc3ccc4cc(C(=O)N5CC[S+]([O-])CC5)ccc4c3)c2c1` [compound 6295, 4-[2-[6-(1-oxo-1,4-thiazinane-4-carbonyl)-2-naphthyl]ethylamino]quinoline-6-carbonitrile], the negative logarithm of the IC50 (pIC50) in experiment [1] (setting [3]) is 6.80; with MV4-11 cells it was 6.66; in the experiment on HL60-Luc cells, 6.79; in experiment [2], 8.24.
With `N#Cc1ccc2nccc(NCCc3ccc4cc(C(=O)N5CCS(=N)(=O)CC5)ccc4c3)c2c1` [compound 6299, 4-[2-[6-(1-imino-1-oxo-1,4-thiazinane-4-carbonyl)-2-naphthyl]ethylamino]quinoline-6-carbonitrile], the negative-log IC50 (pIC50) was 6.67 in experiment [1] (setting [3]), 6.56 in the experiment on MV4-11 cells, 6.59 with HL60-Luc cells and 8.34 in experiment [2].
The matching figures for `CC(=O)N1CCN(C(=O)c2ccc3cc(CCNc4ccnc5ccc(C#N)cc45)ccc3c2)CC1` [compound 6326, 4-[2-[6-(4-acetylpiperazine-1-carbonyl)-2-naphthyl]ethylamino]quinoline-6-carbonitrile]: 6.75, 6.53, 6.79 and 7.93.
The matching figures for `CN(CCCNC(=O)OC(C)(C)C)C(=O)c1ccc2cc(CCNc3ccnc4ccc(C#N)cc34)ccc2c1` [compound 6336, tert-butyl-N-[3-[[6-[2-[(6-cyano-4-quinolyl)amino]ethyl]naphthalene-2-carbonyl]-methyl-amino]propyl]carbamate]: 6.68, 6.74, 6.81 and 8.03.
Take `CN(CCCN)C(=O)c1ccc2cc(CCNc3ccnc4ccc(C#N)cc34)ccc2c1` [compound 6337, N-(3-aminopropyl)-6-[2-[(6-cyano-4-quinolyl)amino]ethyl]-N-methyl-naphthalene-2-carboxamide]: the negative logarithm of the IC50 (pIC50) in experiment [1] (setting [3]) is 6.95; in the experiment on HL60-Luc cells it was 6.59; in experiment [2], 8.04.
As for `CC(C)(C)OC(=O)NCCCN1CCN(C(=O)c2ccc3cc(CCNc4ccnc5ccc(C#N)cc45)ccc3c2)CC1` [compound 6345, tert-butyl-(3-(4-(6-(2-((6-cyanoquinolin-4-yl)amino)ethyl)-2-naphthoyl)piperazin-1-yl)propyl)carbamate], the pIC50 in experiment [1] (setting [3]) is 7.07; in the experiment with MV4-11 cells, 6.91; in the experiment with HL60-Luc cells, 7.21; in experiment [2], 8.09.
For the compound `N#Cc1ccc2nccc(NCCc3ccc4cc(C(=O)N5CCN(CCCN)CC5)ccc4c3)c2c1` [compound 6346, 4-[2-[6-[4-(3-aminopropyl)piperazine-1-carbonyl]-2-naphthyl]ethylamino]quinoline-6-carbonitrile], the negative-log IC50 (pIC50) in experiment [1] (setting [3]) is 6.08; in the experiment on HL60-Luc cells, 6.51; in experiment [2] it was 8.19.
For `CC(C)(C)OC(=O)N1CCN(C(=O)c2ccc3cc(CCNc4ccnc5ccc(C#N)cc45)ccc3c2)CC1` [compound 6440, tert-butyl 4-[6-[2-[(6-cyano-4-quinolyl)amino]ethyl]naphthalene-2-carbonyl]piperazine-1-carboxylate], the pIC50 in experiment [1] (setting [3]) is 6.86; in the experiment with MV4-11 cells, 6.84; in the experiment with HL60-Luc cells, 7.17; in experiment [2], 7.72.
